22 compounds from patent US20090204336A1, “PDZ-Domain Modulators” (Forschungsverbund Berlin e. V., priority 2005, published 2009) can be followed below.

Structures are written as SMILES. Entries after “also recorded” stand apart in the source; their conditions may differ.

Assay [1] has as its target T1, PDZ-domain of the protein AF6 (Homo sapiens, UniProt P55196).
T1 construct: The ubiquitarily 15N marked PDZ-domains of the proteins AF6; made in house
T1 sequence (P55196 1007-1093 limits assumed): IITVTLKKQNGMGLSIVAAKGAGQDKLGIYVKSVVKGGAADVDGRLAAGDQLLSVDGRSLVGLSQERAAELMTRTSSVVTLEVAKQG
Briefly: 15N-HSQC NMR binding assay (chemical shift comparison with and without test ligand). To be noted: for binding to the PDZ-domain of the protein AF6 (binding / non-binding): 8 to 10-fold molar excess of test ligand, 50 μM protein; for binding site occupation from backbone amide chemical shifts, compared with compound 1: 8 to 10-fold ligand excess, FIG. 8; for binding of compound with singly bound R3 compared with the doubly bound equivalent: singly vs doubly bound residue R3.
Description: The chemical shifts are split up into the 2 categories “large (bold italics)” and “small (normal letters)”. From the shown amino acid residues, the binding site of a compound on the protein can be determined by color-highlighting the backbone amide atoms of this amino acid residues in the 3D protein structure of Table 1 and creating the largest common cut set of all these atoms on the protein surface.

Another assay concerns the target T2, PDZ-domain of Syntrophin (Mus musculus, UniProt Q61234).
T2 construct: made in house
T2 sequence (Q61234 81-164 limits assumed): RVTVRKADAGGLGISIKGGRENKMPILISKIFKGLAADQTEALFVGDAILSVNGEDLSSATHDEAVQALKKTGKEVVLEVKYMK
Briefly: Kd determination by 15N-HSQC NMR titration. The class given is binding. To be noted: macroscopic (apparent) Kd ± statistical standard deviation of curve adaptation; 50 μM 15N protein, pH 6.5, 300 K. As to the method:
(§1) The ubiquitarily 15N marked PDZ-domains of the proteins AF6 [Boisguerin, P. et al., Chem. Biol. 11:449-459 (2004)] and Syntrophin [Schultz, J. et al., Nat Struct Biol., 5(1):19-24 (1998)] were prepared as described in the publications. For the NMR assay 50 μM 15N marked protein are mixed in a buffer of 20 mM Na phosphate pH 6.5, 50 mM NaCl and 10% d6-DMSO with a 8 to 10-fold molar excess of test ligand and a 15N-HSQC NMR spectrum is recorded at a temperature of 300 K on a Bruker DRX 600 MHz NMR spectrometer. Secondly, an identical comparison spectrum of protein in absence of test ligand is recorded. The NMR spectra are processed with the aid of the software XWIN-NMR and compared with each other with the aid of the software Sparky. […] Exemplarily is shown such a comparison of spectra for the PDZ-domain of AF6 in FIG. 7A and for the PDZ-domain of Syntrophin in FIG. 7B.
(§2) For the determination of equilibrium dissociation constants (in short: Kd values), a test ligand is added step-wise in increasing concentrations to 50 μM protein solution, and for each concentration step a 15N-HSQC NMR spectrum is recorded under the same conditions as described above. The average chemical shift of a resonance, d, is calculated according to the following equation from the NMR raw data: […]
(§3) wherein ΔH is the shift in ppm units along the 1H resonance axis, and ΔN is the shift in ppm units along the 15N resonance axis. The average shift, d, is drawn as a function of the concentration of the test ligand, and a binding curve results, to which is adapted the following mathematical equation:
(§4) wherein Lo is the total concentration of ligands, Po is the total concentration of protein and Kd is the Kd value. This equation describes the law of mass action of a reaction “protein+ligand=complex”.
(§5) With the aid of a software such as e.g. “Origin 5.0”, the adaptation is optimized in a non-linear manner, thereby providing for each investigated resonance a microscopic Kd value. From the mean value of all relevant microscopic Kd values, a macroscopic Kd value is calculated. In Table 2, the macroscopic Kd values including the statistical standard deviation for the binding of some test ligands to the PDZ-domains of AF6 and of Syntrophin are shown.
(§6) The number behind the ± symbol indicates the statistical standard deviation of a mathematical curve adaptation to the chemical binding equation “protein+ligand=complex”.

In a further assay the target is T3, PDZ-domain of AF6 (Homo sapiens, UniProt P55196).
T3 construct: The ubiquitarily 15N marked PDZ-domains of the proteins AF6; made in house
T3 sequence (P55196 1007-1093 limits assumed): T1 sequence (P55196 1007-1093 limits assumed)
The experiment in a line: Kd determination by 15N-HSQC NMR titration. The class given is binding. To be noted: macroscopic (apparent) Kd ± statistical standard deviation of curve adaptation; 50 μM 15N protein, pH 6.5, 300 K. The method, then:
as §1, §2, §3, §4, §5, §6

`O=C1NC(=S)SC1Cc1ccc(Br)cc1` (centres unmarked) [Compound 2]: the “binding to the PDZ-domain of the protein AF6 (binding / non-binding)” value (“binding … (binding / non-binding)” below) in assay [1] is “particularly strong activity”.
For the compound `O=C1NC(=O)C(Cc2ccc(C(F)(F)F)cc2)S1` (centres unmarked) [Compound 7], the Kd at PDZ-domain of Syntrophin was 330 ± 17 µM; on PDZ-domain of AF6 it was 280 ± 22 µM. For the same compound, the “binding … (binding / non-binding)” value in assay [1] is “particularly strong activity”.
For the compound `O=C1NC(=NCCCc2ccccc2)SC1=Cc1ccc(C(F)(F)F)cc1` [Compound 40], the “binding … (binding / non-binding)” value in assay [1] was “non-binding”.
Still for that read-out and setting: with `O=C1NC(=S)SC1Cc1ccoc1` (centres unmarked) [Compound 4] the entry was “show a binding”; with `O=C1NC(=S)SC1=Cc1ccsc1` [Compound 13], “binding”; with `CN(C)CCN=C1NC(=O)C(=Cc2ccc(C(F)(F)F)cc2)S1` [Compound 39], “non-binding”.
Same read-out and setting: next, `O=C1NC(=S)SC1Cc1ccccc1` (centres unmarked) [Compound 3]: “show a binding”.
In the case of `O=C(O)c1cc2cc(Br)ccc2c(Br)c1O` [Compound 41], the Kd on PDZ-domain of AF6 was found to be 419 ± 30 µM.
Regarding `CN1C(=O)C(=Cc2cccc(C(F)(F)F)c2)SC1=S` [Compound 32], the “binding … (binding / non-binding)” value in assay [1] is “non-binding”.
With `O=C(O)c1cccc([N+](=O)[O-])c1O` [Compound 46], the “binding site occupation from backbone amide chemical shifts, compared with compound 1” value in assay [1] was “does not or only insufficiently occupy the binding sites L25 to V28 and S75 to T91”.
In the case of `NC1=NC(=O)C(=Cc2ccsc2)S1` [Compound 38], the “binding … (binding / non-binding)” value in assay [1] was “non-binding”.
With `CC(C)C=C1SC(=O)NC1=O` [Compound 21], in assay [1], the “binding site occupation from backbone amide chemical shifts, compared with compound 1” value is reported as “missing occupation of the partial binding site of the trifluoromethylphenyl residue” and the “binding … (binding / non-binding)” value is listed as “show a binding”.
Turning to `O=C1NC(=S)SC1Cc1ccsc1` (centres unmarked) [Compound 5], the “binding … (binding / non-binding)” value in assay [1] is “show a binding”.
Still for that read-out and setting: with `CC(c1ccc(C(F)(F)F)cc1)C1SC(=S)NC1=O` (centres unmarked) [Compound 6] the entry was “particularly strong activity”.
As to `O=C1NC(=S)SC1Cc1cccc(C(F)(F)F)c1` (centres unmarked) [Compound 26], in assay [1], the “binding of compound with singly bound R3 compared with the doubly bound equivalent” value is “weaker binding”.
As for `CN1C(=O)C(=Cc2ccc(C(F)(F)F)cc2)SC1=S` [Compound 31], the “binding … (binding / non-binding)” value in assay [1] is recorded as “non-binding”.
As to `O=C1NC(=S)SC1Cc1ccc(C(F)(F)F)cc1` (centres unmarked) [Compound 1], on PDZ-domain of Syntrophin, the Kd was found to be 239 ± 12 µM. At PDZ-domain of AF6, the Kd stood at 101 µM. In assay [1], the “binding … (binding / non-binding)” value is given as “show a binding; also recorded: particularly strong activity” and the “binding of compound with singly bound R3 compared with the doubly bound equivalent” value is on record as “stronger binding”.
For the compound `O=c1[nH]c2c(Cl)c(Cl)c(Cl)cc2o1` [II], the figures for the Kd at PDZ-domain of Syntrophin and on PDZ-domain of AF6 were 398 ± 32 µM and 480 ± 33 µM, respectively.
For `O=C1NC(=S)SC1=Cc1ccc(C(F)(F)F)cc1` [Compound 9], the “binding … (binding / non-binding)” value in assay [1] was “binding; also recorded: particularly strong activity”.
On the same count and under the same terms, with `O=C1NC(=S)SC1=Cc1ccc(-c2ccccc2)cc1` [Compound 30] the entry was “non-binding; also recorded: do not show any binding”; with `O=C1NC(=S)SC1=Cc1c[nH]c2ccccc12` [Compound 29], “non-binding; also recorded: do not show any binding”.
Same read-out and setting: next, `O=C1NC(=S)SC1=Cc1cccc(C(F)(F)F)c1` [Compound 14]: “binding”.
